Measurements published in paper PMC11477141, “Chemokine Receptor N-Terminus Charge Dictates Reliance on Post-Translational Modifications for Effective Ligand Capture and Following Boosting by Defense Peptides” (International Journal of Molecular Sciences, 2024).
Where no end group is shown, it is not given here.

Tests used:
CCR1 = target: T1, CCR1 (Homo sapiens, UniProt P32246); experiment: BRET CAMYEL cAMP sensor assay of ligand-induced Gαi signaling via CCR1; format: cell-based; settings: n = 3
T1 construct: expressed in transfected cells; host or cells: CHO-K1, CHO-pgsB618 (GAG-minus), HEK293 WT / DeltaSia / sC
T1 sequence (P32246 1-355): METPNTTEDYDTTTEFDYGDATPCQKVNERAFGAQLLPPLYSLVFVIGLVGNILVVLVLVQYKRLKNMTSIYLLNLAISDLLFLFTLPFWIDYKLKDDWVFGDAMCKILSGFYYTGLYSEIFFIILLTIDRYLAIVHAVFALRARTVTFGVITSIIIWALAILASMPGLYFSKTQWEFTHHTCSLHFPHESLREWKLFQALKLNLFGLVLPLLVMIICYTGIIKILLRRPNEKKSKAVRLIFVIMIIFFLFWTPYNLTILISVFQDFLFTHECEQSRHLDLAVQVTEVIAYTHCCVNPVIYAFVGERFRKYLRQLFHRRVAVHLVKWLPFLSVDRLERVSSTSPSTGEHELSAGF
Protocol: For quantification of signaling initiated immediate downstream of receptor activation, we used the cAMP binding CAMYEL sensor to perform bioluminescence resonance energy transfer (BRET)-based assays. Shortly, in this assay increased receptor activation leads to an increase in BRET ratio. For detailed information see the Materials and Methods section.
In signaling assays testing the boosting ability of basic peptides, transfected cells were aliquoted into 96-well plates in the presence of 10 µM peptide or PBS vehicle. After R-Luc substrate addition, chemokines were added to reach final concentrations ranging from 0–100 nM (0, 0.1, 1, 10, and 100 nM) and forskolin was applied before reading emission at 475 and 525 nm.
BRET measurements of Gαi signaling and β-arrestin recruitment: Cells were seeded in 6-well plates (500,000 cells/well) and transiently transfected the following day. For BRET measurements of Gαi signaling, cells were transfected with vectors encoding the human chemokine receptors as indicated (160 ng/well) and the CAMYEL sensor (cAMP sensor, YFP-Epac-RLuc) (840 ng/well) using Lipofectamine (6 µL/well). Briefly, DNA was dissolved in 125 µL OPTI-MEM and Lipofectamine was dissolved in 125 µL OPTI-MEM. The DNA and Lipofectamine solutions were combined into a transfection mixture. The transfection mixture was added dropwise to cells incubated in OPTI-MEM (1 mL/well). Transfections were terminated after 5 h by adding 1 mL of fresh culture medium on top of the OPTI-MEM. The following day the cells were loosened from the plates in PBS with 5 mM glucose and subsequently aliquoted in white 96-well iso plates (~25,000 cells/well). When using C21TP variants and defense peptides (hBD2 and histatin), these were added to a final concentration of 10 μM/well, while an equal amount of PBS was added to control cells. The bioluminescence substrate coelenterazine was added to a final conc. of 5 µM. After 10 min, varying ligand concentrations were added. For BRET measurements of Gαi signaling, forskolin was added 5 min after the addition of the ligand, to a final conc. of 5 µM. The plates were kept in the dark at all times. A Perkin Elmer Envision machine was used for measuring the emission signals at 530 and 480 nm. The BRET signal is determined as the ratio eYFP (530 nm)/Rluc (480 nm).
BRET principle with CAMYEL: For quantification of signaling initiated immediately downstream of receptor activation, we used the cAMP binding CAMYEL sensor to perform bioluminescence resonance energy transfer (BRET) based assays. In this assay we measure changes in intracellular cAMP levels in response to receptor activation. Activation of chemokine receptors lead to a decrease in cAMP through inhibition of adenylate cyclase (AC). In the current setup we initially add forskolin that stimulates AC directly to induce an increase in intracellular cAMP, and we then measure the ability of a ligand (chemokine) to counteract the forskolin-induced increase in cAMP. The cAMP sensor (CAMYEL cAMP sensor, YFP-Epac-RLuc) carries the donor Renilla luciferase (Rluc) and the acceptor YFP. Coelenterazine is a substrate for Rluc that will emit light at around 475 nm upon enzymatic cleavage catalyzed by Rluc. When Rluc and YFP are in close proximity, the energy from the emitted light from coelenterazine can be transferred to YFP, resulting in an excitation of YFP, leading to a BRET signal around 525 nm. EPAC is a cAMP binding protein that changes conformation upon cAMP binding. During low cAMP concentrations, Rluc and YFP are near each other, and a strong BRET signal at 525 nm is obtained. When cAMP levels increase, cAMP will bind to EPAC, creating a conformational change, separating Rluc and YFP, reducing the BRET ratio, and increasing the emission from Rluc at 475 nm. Thus, by measuring the ratio between the cAMP-bound (475 nm) and the cAMP-free (525 nm) state of CAMYEL we obtain a measure of receptor activation. […]

Y10A-CCR5 = experiment: BRET CAMYEL Gαi signaling via Y10A-CCR5; format: cell-based, human; settings: CHO cells, n = 3
Protocol: BRET measurements of Gαi signaling and β-arrestin recruitment: Cells were seeded in 6-well plates (500,000 cells/well) and transiently transfected the following day. For BRET measurements of Gαi signaling, cells were transfected with vectors encoding the human chemokine receptors as indicated (160 ng/well) and the CAMYEL sensor (cAMP sensor, YFP-Epac-RLuc) (840 ng/well) using Lipofectamine (6 µL/well). Briefly, DNA was dissolved in 125 µL OPTI-MEM and Lipofectamine was dissolved in 125 µL OPTI-MEM. The DNA and Lipofectamine solutions were combined into a transfection mixture. The transfection mixture was added dropwise to cells incubated in OPTI-MEM (1 mL/well). Transfections were terminated after 5 h by adding 1 mL of fresh culture medium on top of the OPTI-MEM. The following day the cells were loosened from the plates in PBS with 5 mM glucose and subsequently aliquoted in white 96-well iso plates (~25,000 cells/well). […] The BRET signal is determined as the ratio eYFP (530 nm)/Rluc (480 nm).
BRET principle with CAMYEL: For quantification of signaling initiated immediately downstream of receptor activation, we used the cAMP binding CAMYEL sensor to perform bioluminescence resonance energy transfer (BRET) based assays. […] The BRET ratio is determined as the ratio between YFP/Rluc, and an increase in BRET ratio indicates a decrease in cAMP and thus increased chemokine receptor activation. […]

[1] = CHO-K1 cells, 10 µM peptide, chemokine 0-100 nM
[2] = HEK293 WT, DeltaSia and sC cells, 10 µM peptide

| Substance | boosting of CCL5 signaling via CCR1 in GAG-plus and GAG-minus cells (CCR1; CHO GAG-plus and CHO GAG-minus (CHO-pgsB618) cells, 10 µM peptide) | boosting of CCL5-induced Gαi signaling via CCR1 (CCR1; [1]) | boosting of CCL7-induced Gαi signaling via CCR1 (CCR1; [1]) | effect on CCL3-induced Gαi signaling via CCR1 (CCR1; [1]) | boosting of signaling by CCL5, E26A and E66A via CCR1 (CCR1; HEK293 DeltaSia cells, 10 µM peptide) | boosting of signaling by CCL5, E26A and E66A via CCR1 (CCR1; HEK293 WT cells, 10 µM peptide) | boosting of CCL3 signaling via CCR1 (CCR1; [2]) | boosting of CCL5 signaling via CCR1 (CCR1; [2]) | boosting of CCL7 signaling via CCR1 (CCR1; [2]) | boosting of signaling by CCL5, E26A and E66A via CCR1 (CCR1; HEK293 sC cells, 10 µM peptide) | boosting of CCL5 signaling via Y10A receptor variant (Y10A-CCR5; 10 µM peptide) | LogEC50 of CCL5-induced Gαi signaling via CCR1 (CCR1; CHO GAG-minus cells (CHO-pgsB618)) | LogEC50 of CCL5-induced Gαi signaling via CCR1 (CCR1; CHO GAG-plus (WT CHO-K1) cells) | Gαi signaling via CCR1 in DeltaSia and sC cells (CCR1; HEK293 DeltaSia and sC, CCL5 oligomerization variants experiment) | Gαi signaling via CCR1 in DeltaSia and sC cells compared to WT cells (CCR1; HEK293 DeltaSia and sC) | Gαi signaling via Y10A-CCR5 compared to WT-CCR5 (Y10A-CCR5) |
| --- | --- | --- | --- | --- | --- | --- | --- | --- | --- | --- | --- | --- | --- | --- | --- | --- |
| RKDRGASKTGKKGKGSKGCKRTERSQTPKGP [C21TP^81-111] | boosted | boosted | boosted | not affected | tendency for boosting | boosting occurs with all three versions of CCL5 | not boosted | preserved across all three cell lines | persists | significant boosting | maintained | – | – | – | – | – |
| CCL5: human chemokine from Peprotech, overall basic | – | – | – | – | – | – | – | – | – | – | – | −9.42 ± 0.131 | −8.89 ± 0.133 | remains high | persists in DeltaSia and sC to almost the same high level as observed in WT cells | significantly reduced |
